Data published in patent US7582645B2, “Pyrimidine derivatives for treatment of hyperproliferative disorders” (Bayer Pharmaceuticals Corporation, priority 2003, dated 2009).
Where a name gives a salt, the structure may show the parent alone.

Tested on: HCT116 cells
Experiment: HCT116 cytotoxic activity assay (Alamar Blue, 72 h)
Assay type: cell-based
Conditions: Homo sapiens, HCT-116, 72 h compound exposure
Procedure: Representative compounds of this invention were tested for cytotoxicity using the above-described assay procedure with the following results: […]

[1] = greater than 500 nM but less than or equal to 2 μM

| Structure (SMILES) | IC50 (less than or equal to 500 nM) | other results |
| --- | --- | --- |
| Nc1nc(Nc2ccc(Oc3ccnc(C(F)(F)F)c3)cc2)cc(-c2ccc(-c3ccccc3)cc2)n1 [Example 187, 6-biphenyl-4-yl-N4*-(4-{[2-(trifluoromethyl)pyridin-4-yl]oxy}phenyl) pyrimidine-2,4-diamine] | ≤ 500 nM | – |
| Nc1nc(Nc2ccc(Oc3ccnc(C(F)(F)F)c3)cc2)cc(-c2cccs2)n1 [Example 188, 6-(2-thienyl)-N4*-(4-{[2-(trifluoromethyl)pyridin-4-yl]oxy}phenyl)pyrimidine-2,4-diamine] | ≤ 500 nM | – |
| COc1ccc(-c2cc(Nc3ccc(Oc4ccnc(C(F)(F)F)c4)cc3)nc(N)n2)cc1OC [Example 189, 6-(3,4-dimethoxyphenyl)-N4*-(4-{[2-(trifluoromethyl)pyridin-4-yl]oxy}phenyl)pyrimidine-2,4-diamine] | – | IC50 [1]: 500 to 2000 nM |
| COc1ccc(-c2cc(Nc3ccc(Oc4ccnc(C(F)(F)F)c4)cc3)nc(N)n2)cc1 [Example 190, 6-(4-methoxyphenyl)-N4*-(4-{[2-(trifluoromethyl)pyridin-4-yl]oxy}phenyl)pyrimidine-2,4-diamine] | ≤ 500 nM | – |
| COc1ccc(-c2cc(Nc3ccc(Oc4ccnc(C(F)(F)F)c4)cc3)nc(N)n2)cn1 [Example 191, 6-(6-methoxypyridin-3-yl)-N4*-(4-{[2-(trifluoromethyl)pyridin-4-yl]oxy}phenyl)pyrimidine-2,4-diamine] | ≤ 500 nM | – |
| Nc1nc(Nc2ccc(Oc3ccnc(C(F)(F)F)c3)cc2)cc(-c2cccc(F)c2)n1 [Example 192, 6-(3-fluorophenyl)-N4*-(4-{[2-(trifluoromethyl)pyridin-4-yl]oxy}phenyl)pyrimidine-2,4-diamine] | ≤ 500 nM | – |
| Nc1nc(Nc2ccc(Oc3ccnc(C(F)(F)F)c3)cc2)cc(-c2ccccc2F)n1 [Example 193, 6-(2-fluorophenyl)-N4*-(4-{[2-(trifluoromethyl)pyridin-4-yl]oxy}phenyl)pyrimidine-2,4-diamine] | ≤ 500 nM | – |
| Nc1nc(Nc2ccc(Oc3ccnc(C(F)(F)F)c3)cc2)cc(-c2ccccc2N)n1 [Example 194, 6-(2-aminophenyl)-N4*-(4-{[2-(trifluoromethyl)pyridin-4-yl]oxy}phenyl)pyrimidine-2,4-diamine] | – | IC50 [1]: 500 to 2000 nM |
| Nc1nc(Nc2ccc(Oc3ccnc(C(F)(F)F)c3)cc2)cc(-c2ccoc2)n1 [Example 195, 6-(3-furyl)-N4*-(4-{[2-(trifluoromethyl)pyridin-4-yl]oxy}phenyl)pyrimidine-2,4-diamine] | ≤ 500 nM | – |
| Nc1nc(Nc2ccc(Oc3ccnc(C(F)(F)F)c3)cc2)cc(-c2ccc(F)cc2)n1 [Example 196, 6-(4-fluorophenyl)-N4*-(4-{[2-(trifluoromethyl)pyridin-4-yl]oxy}phenyl)pyrimidine-2,4-diamine] | ≤ 500 nM | – |
| Nc1nc(Nc2ccc(Oc3ccnc(C(F)(F)F)c3)cc2)cc(-c2cccc(C(F)(F)F)c2)n1 [Example 197, 6-[3-(trifluoromethyl)phenyl]-N4*-(4-{[2-(trifluoromethyl)pyridin-4-yl]oxy}phenyl)pyrimidine-2,4-diamine] | – | IC50 [1]: 500 to 2000 nM |
| N#Cc1cccc(-c2cc(Nc3ccc(Oc4ccnc(C(F)(F)F)c4)cc3)nc(N)n2)c1 [Example 198, 3-{2-amino-6-[(4-{[2-(trifluoromethyl)pyridin-4-yl]oxy}phenyl)amino]pyrimidin-4-yl}benzonitrile] | – | IC50 [1]: 500 to 2000 nM |
| CN(C)c1ccc(-c2cc(Nc3ccc(Oc4ccnc(C(F)(F)F)c4)cc3)nc(N)n2)cc1 [Example 199, 6-[4-(dimethylamino)phenyl]-N4*-(4-{[2-(trifluoromethyl)pyridin-4-yl]oxy}phenyl)pyrimidine-2,4-diamine] | ≤ 500 nM | – |
| CCc1cccc(-c2cc(Nc3ccc(Oc4ccnc(C(F)(F)F)c4)cc3)nc(N)n2)c1 [Example 200, 6-(3-ethylphenyl)-N4*-(4-{[2-(trifluoromethyl)pyridin-4-yl]oxy}phenyl)pyrimidine-2,4-diamine] | ≤ 500 nM | – |
| COc1ccc(C(C)C)cc1-c1cc(Nc2ccc(Oc3ccnc(C(F)(F)F)c3)cc2)nc(N)n1 [Example 201, 6-(5-isopropyl-2-methoxyphenyl)-N4*-(4-{[2-(trifluoromethyl)pyridin-4-yl]oxy}phenyl)pyrimidine-2,4-diamine] | – | IC50 [1]: 500 to 2000 nM |
| Cc1ccccc1-c1cc(Nc2ccc(Oc3ccnc(C(F)(F)F)c3)cc2)nc(N)n1 [Example 202, 6-(2-methylphenyl)-N4*-(4-{[2-(trifluoromethyl)pyridin-4-yl]oxy}phenyl)pyrimidine-2,4-diamine] | ≤ 500 nM | – |
| COc1ccncc1-c1cc(Nc2ccc(Oc3ccnc(C(F)(F)F)c3)cc2)nc(N)n1 [Example 203, 6-(4-methoxypyridin-3-yl)-N4*-(4-{[2-(trifluoromethyl)pyridin-4-yl]oxy}phenyl)pyrimidine-2,4-diamine] | – | IC50 [1]: 500 to 2000 nM |
| Nc1nc(Nc2ccc(Oc3ccnc(C(F)(F)F)c3)cc2)cc(-c2ccc(F)cc2F)n1 [Example 204, 6-(2,4-difluorophenyl)-N4*-(4-{[2-(trifluoromethyl)pyridin-4-yl]oxy}phenyl)pyrimidine-2,4-diamine] | ≤ 500 nM | – |

| Structure (SMILES) | IC50 (less than or equal to 500 nM) | other results |
| --- | --- | --- |
| Nc1nc(Nc2ccc(Oc3ccnc(C(F)(F)F)c3)cc2)cc(-c2cccc(CO)c2)n1 [Example 205, (3-{2-amino-6-[(4-{[2-(trifluoromethyl)pyridin-4-yl]oxy}phenyl)amino]pyrimidin-4-yl}phenyl) methanol] | ≤ 500 nM | – |
| COc1cccc(-c2cc(Nc3ccc(Oc4ccnc(C(F)(F)F)c4)cc3)nc(N)n2)c1 [Example 206, 6-(3-methoxyphenyl)-N4*-(4-{[2-(trifluoromethyl)pyridin-4-yl]oxy}phenyl)pyrimidine-2,4-diamine] | ≤ 500 nM | – |
| CCSc1ccc(-c2cc(Nc3ccc(Oc4ccnc(C(F)(F)F)c4)cc3)nc(N)n2)cc1 [Example 207, 6-[4-(ethylthio)phenyl]-N4*-(4-{[2-(trifluoromethyl)pyridin-4-yl]oxy}phenyl)pyrimidine-2,4-diamine] | – | IC50 [1]: 500 to 2000 nM |
| Cc1ccc(-c2cc(Nc3ccc(Oc4ccnc(C(F)(F)F)c4)cc3)nc(N)n2)cc1N [Example 208, 6-(3-amino-4-methylphenyl)-N4*-(4-{[2-(trifluoromethyl)pyridin-4-yl]oxy}phenyl)pyrimidine-2,4-diamine] | ≤ 500 nM | – |
| CC(C)c1ccc(-c2cc(Nc3ccc(Oc4ccnc(C(F)(F)F)c4)cc3)nc(N)n2)cc1 [Example 209, 6-(4-isopropylphenyl)-N4*-(4-{[2-(trifluoromethyl)pyridin-4-yl]oxy}phenyl)pyrimidine-2,4-diamine] | ≤ 500 nM | – |
| N#CCc1ccc(-c2cc(Nc3ccc(Oc4ccnc(C(F)(F)F)c4)cc3)nc(N)n2)cc1 [Example 210, (4-{2-amino-6-[(4-{[2-(trifluoromethyl)pyridin-4-yl]oxy}phenyl)amino]pyrimidin-4-yl}phenyl) acetonitrile] | ≤ 500 nM | – |
| Cc1ccc(-c2cc(Nc3ccc(Oc4ccnc(C(F)(F)F)c4)cc3)nc(N)n2)cc1 [Example 211, 6-(4-methylphenyl)-N4*-(4-{[2-(trifluoromethyl)pyridin-4-yl]oxy}phenyl)pyrimidine-2,4-diamine] | ≤ 500 nM | – |
| Cc1cccc(-c2cc(Nc3ccc(Oc4ccnc(C(F)(F)F)c4)cc3)nc(N)n2)c1 [Example 212, 6-(3-methylphenyl)-N4*-(4-{[2-(trifluoromethyl)pyridin-4-yl]oxy}phenyl)pyrimidine-2,4-diamine] | ≤ 500 nM | – |
| Nc1nc(Nc2ccc(Oc3ccnc(C(F)(F)F)c3)cc2)cc(-c2cccnc2)n1 [Example 213, 6-pyridin-3-yl-N4*-(4-{[2-(trifluoromethyl)pyridin-4-yl]oxy}phenyl)pyrimidine-2,4-diamine] | ≤ 500 nM | – |
| Nc1nc(Nc2ccc(Oc3ccnc(C(F)(F)F)c3)cc2)cc(-c2ccsc2)n1 [Example 214, 6-(3-thienyl)-N4*-(4-{[2-(trifluoromethyl)pyridin-4-yl]oxy}phenyl)pyrimidine-2,4-diamine] | ≤ 500 nM | – |
| COc1ccc(OC)c(-c2cc(Nc3ccc(Oc4ccnc(C(F)(F)F)c4)cc3)nc(N)n2)c1 [Example 215, 6-(2,5-dimethoxyphenyl)-N4*-(4-{[2-(trifluoromethyl)pyridin-4-yl]oxy}phenyl)pyrimidine-2,4-diamine] | ≤ 500 nM | – |
| Nc1nc(Nc2ccc(Oc3ccnc(C(F)(F)F)c3)cc2)cc(-c2cccc(OC(F)(F)F)c2)n1 [Example 216, 6-[3-(trifluoromethoxy)phenyl]-N4*- (4-{[2-(trifluoromethyl)pyridin-4-yl]oxy}phenyl)pyrimidine-2,4-diamine] | – | IC50 (greater than 2 μM): > 2000 nM |
| Nc1nc(Nc2ccc(Oc3ccnc(C(F)(F)F)c3)cc2)cc(-c2ccc(OC(F)(F)F)cc2)n1 [Example 217, 6-[4-(trifluoromethoxy)phenyl]-N4*- (4-{[2-(trifluoromethyl)pyridin-4-yl]oxy}phenyl)pyrimidine-2,4-diamine] | – | IC50 (greater than 2 μM): > 2000 nM |
| Nc1nc(Nc2ccc(Oc3ccnc(C(F)(F)F)c3)cc2)cc(-c2cc(F)cc(F)c2)n1 [Example 218, 6-(3,5-difluorophenyl)-N4*-(4-{[2-(trifluoromethyl)pyridin-4-yl]oxy}phenyl)pyrimidine-2,4-diamine] | ≤ 500 nM | – |
| N#Cc1cc(Oc2ccc(Nc3cc(-c4ccc[nH]4)nc(N)n3)cc2)ccn1 [Example 219, 4-(4-{[2-amino-6-(1H-pyrrol-2-yl)pyrimidin-4-yl]amino}phenoxy) pyridine-2-carbonitrile hydrochloride] | ≤ 500 nM | – |
| CCCCc1ccc(-c2cc(Nc3ccc(Oc4ccnc(C#N)c4)cc3)nc(N)n2)cc1 [Example 220, 4-(4-{[2-amino-6-(4-butylphenyl)pyrimidin-4-yl]amino}phenoxy) pyridine-2-carbonitrile] | – | IC50 [1]: 500 to 2000 nM |
| N#Cc1cc(Oc2ccc(Nc3cc(-c4ccc(-c5ccccc5)c(F)c4)nc(N)n3)cc2)ccn1 [Example 221, 4-(4-{[2-amino-6-(2-fluorobiphenyl-4-yl)pyrimidin-4-yl]amino}phenoxy) pyridine-2-carbonitrile] | – | IC50 (greater than 2 μM): > 2000 nM |
| NC(=O)c1cc(Oc2ccc(Nc3cc(-c4cccc(OCc5ccccc5)c4)nc(N)n3)cc2)ccn1 [Example 222, 4-[4-({2-amino-6-[3-(benzyloxy)phenyl]pyrimidin-4-yl}amino)phenoxy]pyridine-2-carboxamide] | – | IC50 [1]: 500 to 2000 nM |
